Results reported in patent US6436963B1 (priority 1998, dated 2002).

Key:
Type in all cases: in vivo
[1] = tested on: Erysiphe graminis; experiment: Powdery Mildew of Wheat (ERYSGT), protectant spray test on wheat seedlings; settings: wheat (cultivar Monon), sprayed to run off at 100 ppm, inoculated after 24 hours
[2] = tested on: Leptosphaeria nodorum; experiment: Glume Blotch of Wheat (LEPTNO), protectant spray test on wheat seedlings; settings: wheat (cultivar Monon), sprayed to run off at 100 ppm, inoculated after 24 hours
[3] = tested on: Puccinia recondita; experiment: Brown Rust (PUCCRT), protectant spray test on wheat seedlings; settings: wheat (cultivar Monon), sprayed to run off at 100 ppm, inoculated after 24 hours
[4] = tested on: Phytophthora infestans; settings: tomatoes (cultivar Rutgers), sprayed to run off at 100 ppm, inoculated after 24 hours

| SMILES | ERYSGT control of plant disease [1] | LEPTNO control of plant disease [2] | PUCCRT control of plant disease [3] | PHYTIN control of plant disease [4] |
| --- | --- | --- | --- | --- |
| CCC(=O)OC(c1ccccc1)c1cnc(OCc2ccccc2C(=NOC)C(=O)NC)c(Cl)c1 (racemic) [Example 36] | + (+ = 25-74% control of plant disease) | ++ (++ = 75-100% control of plant disease) | ++ (++ = 75-100% control of plant disease) | ++ (++ = 75-100% control of plant disease) |
| CNC(=O)C(=NOC)c1ccccc1COc1ncc(C(C)OCc2ccc(C)cc2)cc1Cl (racemic) [Example 44] | ++ (++ = 75-100% control of plant disease) | ++ (++ = 75-100% control of plant disease) | ++ (++ = 75-100% control of plant disease) | ++ (++ = 75-100% control of plant disease) |
| CC[Si](CC)(CC)OC(c1ccccc1)c1cnc(OCc2ccccc2C(=NOC)C(=O)NC)c(Cl)c1 (stereo not shown) [Example 67] | ++ (++ = 75-100% control of plant disease) | ++ (++ = 75-100% control of plant disease) | ++ (++ = 75-100% control of plant disease) | = = |
| CNC(=O)C(=NOC)c1ccccc1COc1ncc(C(OC(C)=O)c2cccc(F)c2)cc1Cl (stereo not shown) [Example 96] | ++ (++ = 75-100% control of plant disease) | ++ (++ = 75-100% control of plant disease) | ++ (++ = 75-100% control of plant disease) | ++ (++ = 75-100% control of plant disease) |
| CNC(=O)C(=NOC)c1ccccc1COc1ncc(C(O)c2ccc3ccccc3c2)cc1Cl (racemic) [Example 49] | ++ (++ = 75-100% control of plant disease) | ++ (++ = 75-100% control of plant disease) | ++ (++ = 75-100% control of plant disease) | ++ (++ = 75-100% control of plant disease) |
| CNC(=O)C(=NOC)c1ccccc1COc1ncc(C(OC(C)=O)c2ccccc2)cc1Cl (stereo not shown) [Example 76] | ++ (++ = 75-100% control of plant disease) | ++ (++ = 75-100% control of plant disease) | ++ (++ = 75-100% control of plant disease) | ++ (++ = 75-100% control of plant disease) |
| CNC(=O)C(=NOC)c1ccccc1COc1ncc(C(OC(C)=O)c2ccccc2C(F)(F)F)cc1Cl (stereo not shown) [Example 88] | ++ (++ = 75-100% control of plant disease) | ++ (++ = 75-100% control of plant disease) | ++ (++ = 75-100% control of plant disease) | ++ (++ = 75-100% control of plant disease) |
| CNC(=O)C(=NOC)c1ccccc1COc1ncc(C(C)OCc2cccc(OC)c2)cc1Cl (racemic) [Example 62] | ++ (++ = 75-100% control of plant disease) | ++ (++ = 75-100% control of plant disease) | ++ (++ = 75-100% control of plant disease) | − (− = 0-24% control of plant disease) |
| CNC(=O)C(=NOC)c1ccccc1COc1ncc(C(OC(C)=O)c2ccc3ccccc3c2)cc1Cl (stereo not shown) [Example 83] | ++ (++ = 75-100% control of plant disease) | ++ (++ = 75-100% control of plant disease) | ++ (++ = 75-100% control of plant disease) | ++ (++ = 75-100% control of plant disease) |
| CNC(=O)C(=NOC)c1ccccc1COc1ncc(C(OC)c2cccc(C)c2)cc1Cl (stereo not shown) [Example 114] | ++ (++ = 75-100% control of plant disease) | ++ (++ = 75-100% control of plant disease) | ++ (++ = 75-100% control of plant disease) | − (− = 0-24% control of plant disease) |
| CNC(=O)C(=NOC)c1ccccc1COc1ncc(C(COC(C)=O)(OC(C)=O)c2ccccc2)cc1Cl (stereo not shown) [Example 107] | ++ (++ = 75-100% control of plant disease) | ++ (++ = 75-100% control of plant disease) | ++ (++ = 75-100% control of plant disease) | ++ (++ = 75-100% control of plant disease) |
| CCCCOC(C)c1cnc(OCc2ccccc2C(=NOC)C(=O)NC)c(Cl)c1 (stereo not shown) [Example 80] | ++ (++ = 75-100% control of plant disease) | ++ (++ = 75-100% control of plant disease) | ++ (++ = 75-100% control of plant disease) | − (− = 0-24% control of plant disease) |
| CCCCCOC(C)c1cnc(OCc2ccccc2C(=NOC)C(=O)NC)c(Cl)c1 (racemic) [Example 41] | ++ (++ = 75-100% control of plant disease) | ++ (++ = 75-100% control of plant disease) | ++ (++ = 75-100% control of plant disease) | − (− = 0-24% control of plant disease) |
